We go through eight molecules from publication PMC4151520 (Journal of medicinal chemistry, 2011).

The conditions of series [1]: room temperature, 2 weeks.
Series [2] concerns the target hLRH-1 LBD alone (no lipid added) (Homo sapiens, UniProt O00482). In words: Native gel. The series is classed as binding. The note with it: doses up to 100 µM.
Series [3] is described as follows: Solubility. The format is physicochemical.
Series [4] has as its target mouse SF-1 (Mus musculus, UniProt P33242). The series is described as follows: RT-qPCR of endogenous target genes in HEK293 cells stably expressing SF-1. The series is classed as cell-based. Particulars: 10 µM, 24 h, relative to DMSO. A general note: Real-time PCR tracks product formation cycle by cycle.
Series [5] deals with hLRH-1 (Homo sapiens, UniProt O00482). In words: RT-qPCR of endogenous target genes in HEK293 cells stably expressing hLRH-1. The series is classed as cell-based. Particulars: 10 µM, 24 h.
The test system of series [6] is LRH-1. The note with it: cited from earlier work.
The test system of series [7] is H295R cell line. The note with it: cited from earlier work.
Series [8] relates to SW-13 cell line. The note with it: cited from earlier work.
The subject of series [9] is SF-1. Particulars: read-out: IC50 inverse agonist of SF-1; cited from earlier work.
The target of series [10] is human LRH-1 ligand binding domain, labeled with biotin (human, UniProt O00482 300-541, biotin (site not stated)). The series is described as follows: FRET or BRET. Background: BRET reads energy transfer from a luciferase to a nearby fluorophore.
human LRH-1 ligand binding domain, labeled with biotin, sequence (O00482 300-541): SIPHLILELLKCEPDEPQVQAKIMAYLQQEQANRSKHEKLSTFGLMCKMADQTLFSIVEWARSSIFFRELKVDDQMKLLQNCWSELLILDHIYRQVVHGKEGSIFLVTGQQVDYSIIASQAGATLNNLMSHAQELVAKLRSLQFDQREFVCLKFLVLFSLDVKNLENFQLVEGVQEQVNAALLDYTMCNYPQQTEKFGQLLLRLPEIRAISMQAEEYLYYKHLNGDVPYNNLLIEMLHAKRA

hLRH-1, sequence (O00482 whole entry): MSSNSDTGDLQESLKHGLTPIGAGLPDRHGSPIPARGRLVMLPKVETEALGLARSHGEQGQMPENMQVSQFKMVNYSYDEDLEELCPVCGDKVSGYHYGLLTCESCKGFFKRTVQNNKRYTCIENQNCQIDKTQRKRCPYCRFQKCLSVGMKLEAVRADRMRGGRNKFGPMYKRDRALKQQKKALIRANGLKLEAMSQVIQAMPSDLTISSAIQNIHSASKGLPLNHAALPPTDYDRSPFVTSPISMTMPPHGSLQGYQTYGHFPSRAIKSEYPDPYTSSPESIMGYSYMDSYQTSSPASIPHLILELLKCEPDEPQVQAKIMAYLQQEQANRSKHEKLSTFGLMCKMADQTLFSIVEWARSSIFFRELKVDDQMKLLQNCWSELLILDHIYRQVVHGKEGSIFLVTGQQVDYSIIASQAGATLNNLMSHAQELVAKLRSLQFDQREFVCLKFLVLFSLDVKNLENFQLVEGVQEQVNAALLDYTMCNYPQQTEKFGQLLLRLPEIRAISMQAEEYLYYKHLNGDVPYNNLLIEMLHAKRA
hLRH-1 LBD alone (no lipid added), sequence (O00482 300-539 limits assumed): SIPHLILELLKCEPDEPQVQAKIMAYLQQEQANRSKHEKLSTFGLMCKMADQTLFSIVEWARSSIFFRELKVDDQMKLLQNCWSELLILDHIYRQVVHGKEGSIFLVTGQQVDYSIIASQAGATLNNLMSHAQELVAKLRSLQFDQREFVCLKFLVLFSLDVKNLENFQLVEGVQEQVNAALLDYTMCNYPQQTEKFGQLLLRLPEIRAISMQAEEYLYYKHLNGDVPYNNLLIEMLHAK
mouse SF-1, sequence (P33242 whole entry): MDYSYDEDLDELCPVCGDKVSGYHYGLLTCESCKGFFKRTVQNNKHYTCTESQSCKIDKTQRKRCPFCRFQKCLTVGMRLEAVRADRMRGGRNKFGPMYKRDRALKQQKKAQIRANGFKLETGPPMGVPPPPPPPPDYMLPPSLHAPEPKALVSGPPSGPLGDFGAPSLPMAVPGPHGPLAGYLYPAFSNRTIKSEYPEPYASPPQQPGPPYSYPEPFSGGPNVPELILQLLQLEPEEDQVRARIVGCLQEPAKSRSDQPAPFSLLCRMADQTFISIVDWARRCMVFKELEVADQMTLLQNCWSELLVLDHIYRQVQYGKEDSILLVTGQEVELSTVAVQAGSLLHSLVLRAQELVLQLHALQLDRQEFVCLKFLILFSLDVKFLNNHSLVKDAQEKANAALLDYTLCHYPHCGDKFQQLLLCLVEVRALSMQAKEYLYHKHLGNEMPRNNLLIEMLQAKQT

Consider `C=C(c1ccccc1)[C@@]12CCC[C@@H]1CC(CCCCCC)=C2c1ccccc1` (racemic) [Compound 18a, rac-(1R,5R)-3-Hexyl-2-phenyl-1-(1-phenylvinyl)-bicyclo[3.3.0]oc-t-2-ene], for which, in series [1], the “stability in CDCl3 in the presence of daylight” value is reported as “stable”.

With `C=C(CCCC)[C@@]12CCC[C@@H]1CC(CCCCCC)=C2c1ccccc1` (racemic) [Compound 18j, rac-(1R,5R)-1-(Hex-1-en-2-yl)-3-hexyl-2-phenyl-bicyclo[3.3.0]oct-2-ene], the “shift in hLRH-1 LBD native PAGE migration” value in series [2] is listed as “does not appear competent to shift hLRH-1 LBD migration”. In addition, the “solubility, in words” value in series [3] was “very poor solubility in aqueous media”.

Take `C=C(c1ccccc1)[C@@]12CCC[C@@H]1CC(CCCCCC)=C2CCCO` (racemic) [Compound 18s, rac-(1R,5R)-3-Hexyl-1-(phenylvinyl)-2-(propan-3-ol)-bicyclo[3.-3.0]oct-2-ene]: in series [2], the “shift in hLRH-1 LBD native PAGE migration” value is reported as “can consistently shift hLRH-1 LBD migration in this native gel assay, albeit with reduced potency as compared to 24-exo”.

As for `C=C(c1ccccc1)[C@@]12CN(C)C[C@@H]1CC(CCCCCC)=C2c1ccccc1` (racemic) [Compound 20a], the “SF-1-mediated transcription of endogenous SHP, StAR, G0S2 and MeOX1 target genes” value in [4] is on record as “significantly activate”. In addition, the “solubility, in words” value in series [3] was “improved solubility”. In series [5], the “LRH-1 transcription of the SHP and MeOx1 genes” value is “failed to activate”; the “LRH-1 transcription of the StAR and G0S2 genes” value was “activated”.

Regarding `C=C(c1ccccc1)[C@@]12CC[C@@H](O)[C@@H]1CC(CCCCCC)=C2c1ccccc1` (racemic) [Compound 24-exo, rac-(1R,5R,6R)-3-Hexyl-6-hydroxy-2-phenyl-1-(phenylvinyl)-bicyclo[3.3.0]oct-2-ene], the “SF-1-mediated transcription of endogenous SHP, StAR, G0S2 and MeOX1 target genes” value in [4] is recorded as “significantly activate”. Moreover, the “solubility, in words” value in series [3] is reported as “reasonable solubility in polar solvents”.

Turning to `CCCCCCCOc1ccc(O)cc1` [Compound 8, p-heptyloxyphenol], in series [6], the “activity against LRH-1” value is reported as “no activity”. In addition, in series [7], the “proliferation of H295R” value is on record as “inhibit proliferation”. For the same molecule, the “proliferation of SW-13 (SF-1 negative)” value in series [8] is “had the same effect”.

`CCOC(=O)C(C)Oc1cccc2c(=O)n(CC(=O)Nc3ccc(OC)cc3)ccc12` (centres unmarked) [Compound 9]: in series [9], the half-inhibitory concentration (IC50) – broadly, the concentration that gives 50% inhibition – was 200 nM. For the same molecule, the “doxycycline (DOX) induced proliferation of H295R” value in series [7] (10 µM) was “modestly suppressed”. Further, the “effect on SW-13 (SF-1 negative)” value in [8] (10 µM) is on record as “little effect”.

B1: biotin-labeled peptide derived from TIF-2 amino acids 737-757 (peptide)
peptide: QEPVSPKKKENALLRYLLDKDDTKD
HELM: PEPTIDE1{[O=C1N[C@H]2[C@H](CS[C@H]2CCCCC(=O)[*:2])N1].Q.E.P.V.S.P.K.K.K.E.N.A.L.L.R.Y.L.L.D.K.D.D.T.K.D.[am]}$$$$V2.0
SMILES: CC(C)C[C@H](NC(=O)[C@H](C)NC(=O)[C@H](CC(N)=O)NC(=O)[C@H](CCC(=O)O)NC(=O)[C@H](CCCCN)NC(=O)[C@H](CCCCN)NC(=O)[C@H](CCCCN)NC(=O)[C@@H]1CCCN1C(=O)[C@H](CO)NC(=O)[C@@H](NC(=O)[C@@H]1CCCN1C(=O)[C@H](CCC(=O)O)NC(=O)[C@H](CCC(N)=O)NC(=O)CCCC[C@@H]1SC[C@@H]2NC(=O)N[C@@H]21)C(C)C)C(=O)N[C@@H](CC(C)C)C(=O)N[C@@H](CCCNC(=N)N)C(=O)N[C@@H](Cc1ccc(O)cc1)C(=O)N[C@@H](CC(C)C)C(=O)N[C@@H](CC(C)C)C(=O)N[C@@H](CC(=O)O)C(=O)N[C@@H](CCCCN)C(=O)N[C@@H](CC(=O)O)C(=O)N[C@@H](CC(=O)O)C(=O)N[C@H](C(=O)N[C@@H](CCCCN)C(=O)N[C@@H](CC(=O)O)C(N)=O)[C@@H](C)O
Consider B1, for which, in series [10], the binding result is on record as “binds”.
